Data from patent US7238716B2, “Alkanoic acid derivatives process for their production and use thereof” (Takeda Pharmaceuticals Company Limited, priority 2000, dated 2007).

Target: T1, PPARγ-RXRα heterodimer (Homo sapiens, UniProt P37231)
T1 construct: expressed in transfected cells; host or cells: CHO-K1
T1 sequence (P37231 1-477 isoform P37231-2): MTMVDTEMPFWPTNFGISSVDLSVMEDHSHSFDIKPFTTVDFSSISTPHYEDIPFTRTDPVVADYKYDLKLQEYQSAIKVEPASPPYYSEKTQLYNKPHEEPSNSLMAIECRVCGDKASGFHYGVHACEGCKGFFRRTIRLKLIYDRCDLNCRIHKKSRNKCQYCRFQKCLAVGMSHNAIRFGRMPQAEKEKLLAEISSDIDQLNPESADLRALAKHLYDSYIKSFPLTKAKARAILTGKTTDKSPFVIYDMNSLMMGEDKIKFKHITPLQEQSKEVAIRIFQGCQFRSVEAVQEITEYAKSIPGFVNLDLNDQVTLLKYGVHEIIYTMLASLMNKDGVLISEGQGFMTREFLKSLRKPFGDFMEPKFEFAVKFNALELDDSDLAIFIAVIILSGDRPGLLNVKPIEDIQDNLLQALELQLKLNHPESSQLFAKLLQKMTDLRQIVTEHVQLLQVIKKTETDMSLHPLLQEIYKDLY
T1 sequence (P19793 1-462 partner): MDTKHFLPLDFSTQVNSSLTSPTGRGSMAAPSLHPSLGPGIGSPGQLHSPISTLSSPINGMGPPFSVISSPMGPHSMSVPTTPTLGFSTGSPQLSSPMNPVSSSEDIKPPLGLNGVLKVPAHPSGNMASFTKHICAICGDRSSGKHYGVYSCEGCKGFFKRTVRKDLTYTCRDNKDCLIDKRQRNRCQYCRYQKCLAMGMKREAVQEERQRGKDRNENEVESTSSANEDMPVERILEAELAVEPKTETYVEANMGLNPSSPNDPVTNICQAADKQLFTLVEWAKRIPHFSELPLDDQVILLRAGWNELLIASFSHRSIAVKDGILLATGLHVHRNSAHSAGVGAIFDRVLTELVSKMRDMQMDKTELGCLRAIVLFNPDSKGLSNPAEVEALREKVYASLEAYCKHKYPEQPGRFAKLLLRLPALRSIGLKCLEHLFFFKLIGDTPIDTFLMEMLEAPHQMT
Assay: PPARγ-RXRα heterodimer ligand activity, luciferase reporter in PPARγ:RXRα:4ERPP/CHO-K1 cells (Test Example 3)
Assay type: cell-based
Settings: concentration for 50% of the maximum fold induction of luciferase activity; 48 hours, CHO-K1 cells
Outline: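 CHO-K1 cells stably carrying hPPARγ/RXR expression plasmid and 4ERPP-TK luciferase reporter, treated 48 h at 37 °C in HAM F12 with 0.1% fatty-acid-free BSA. Luciferase fold induction taken over untreated cells; EC50 at 50% of maximal fold induction.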

Compound	EC50 [nM]
Cc1oc(-c2ccccc2)nc1CCc1ccc(COc2ccccc2CC(=O)O)cc1 [Example 97, 2-[2-[4-[2-(5-methyl-2-phenyl-4-oxazolyl)ethyl]benzyloxy]phenyl]acetic acid]	26
Cc1oc(-c2ccccc2)nc1COc1ccc(COc2ccccc2CC(=O)O)cn1 [Example 41, 2-[2-[[6-[(5-methyl-2-phenyl-4-oxazolyl)methoxy]-3-pyridyl]methoxy]phenyl]acetic acid]	15
